Results on three compounds are retold here after patent publication US12195588B2, “Polyether derivatives, uses, and methods of making the same” (P2 Science, Inc., priority 2017, dated 2025).

This test relates to female Yellow Fever mosquitos (Aedes aegypti). It counts as in vivo. The method, then:
Mosquitos are exposed to the treatments applied to 3-cm diameter collagen membranes placed over warmed, blood-filled wells in a multi-well plate. The wells are pre-warmed to 96-100° F., and then citrated whole blood with ATP is poured into each well to completely fill. The membrane is applied and secured using vacuum grease. To each membrane 25 microliters of the test solution is applied, and the solution is allowed to dry. The plate is then placed into a plastic box enclosure having 250 adult female mosquitos. The number of instances of a mosquito probing the membrane is recorded during a 20-minute period. The entire procedure is repeated until five replicates are complete. Treatment positions in the plates are rotated between each replicate to eliminate any positional bias. Fresh blood and mosquitoes are used in each replicate. Percent repellency is calculated by comparison to a negative control membrane treated only with water.
This is compared to a solution of DEET in IPA at 20% by weight as a control. The procedure is as described for Example 8.

[1] abbreviates: Example 8, 25 microliters on membrane, 20-minute period, five replicates, DEET as 20% isopropanol solution.
Where [2] appears, read: Example 8, by comparison to water-treated membrane, DEET as 20% isopropanol solution.
[3] abbreviates: Example 10, 20% by weight in IPA.

Read-outs that look alike come from different tables or passages of the source.

In the case of `CCN(CC)C(=O)c1cccc(C)c1` [DEET, di-ethyl-meta-toluamide], the “Mosquito Probes” value is, setting by setting: under setting [1], 0; under setting [3], 0. The “% Repellency” value reads like this: under setting [2], 100%; under setting [3], 100%.
On to citronellol dimer acetate [Sample B], for which, under setting [1], the “Mosquito Probes” value is 0.6. Moreover, the “% Repellency” value under setting [2] is listed as 98.8%.
On to Citronellol dimer [Sample A], for which, under setting [1], the “Mosquito Probes” value is recorded as 0.4. Also, under setting [2], the “% Repellency” value worked out at 99.1%.
